Assay results taken from patent publication US20170233413A1, “SUBSTITUTED ANNULATED PYRIMIDINES AND USE THEREOF” (Bayer Pharma Aktiengesellschaft, priority 2014, published 2017).

Columns and labels:
[1] = molecular target: T1, recombinant guanylate cyclase reporter cell line (Rattus norvegicus, UniProt P19686+P20595); test: Effect on a recombinant guanylate cyclase reporter cell line; format: cell-based; settings: MEC = minimum effective concentration; in some cases means of individual determinations
T1 construct: expressed in transfected cells
T1 sequence (P19686 1-690): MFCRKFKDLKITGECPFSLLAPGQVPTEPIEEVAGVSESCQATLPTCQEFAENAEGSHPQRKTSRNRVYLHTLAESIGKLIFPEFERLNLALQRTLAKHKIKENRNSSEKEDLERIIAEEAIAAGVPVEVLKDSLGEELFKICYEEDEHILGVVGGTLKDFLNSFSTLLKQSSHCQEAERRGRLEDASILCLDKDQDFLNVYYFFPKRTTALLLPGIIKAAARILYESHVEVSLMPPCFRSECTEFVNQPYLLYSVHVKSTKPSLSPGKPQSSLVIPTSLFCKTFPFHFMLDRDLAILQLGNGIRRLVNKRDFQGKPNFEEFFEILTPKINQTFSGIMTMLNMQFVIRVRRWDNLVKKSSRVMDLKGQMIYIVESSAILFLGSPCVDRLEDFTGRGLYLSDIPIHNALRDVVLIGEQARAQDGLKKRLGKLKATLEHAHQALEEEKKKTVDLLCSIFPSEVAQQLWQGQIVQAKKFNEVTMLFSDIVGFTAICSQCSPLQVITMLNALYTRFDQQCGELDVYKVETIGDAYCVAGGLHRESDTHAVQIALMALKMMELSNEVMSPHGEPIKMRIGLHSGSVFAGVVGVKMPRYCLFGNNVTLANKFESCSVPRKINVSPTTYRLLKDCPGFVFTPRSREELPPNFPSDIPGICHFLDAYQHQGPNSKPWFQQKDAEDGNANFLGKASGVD
T1 sequence (P20595 1-619): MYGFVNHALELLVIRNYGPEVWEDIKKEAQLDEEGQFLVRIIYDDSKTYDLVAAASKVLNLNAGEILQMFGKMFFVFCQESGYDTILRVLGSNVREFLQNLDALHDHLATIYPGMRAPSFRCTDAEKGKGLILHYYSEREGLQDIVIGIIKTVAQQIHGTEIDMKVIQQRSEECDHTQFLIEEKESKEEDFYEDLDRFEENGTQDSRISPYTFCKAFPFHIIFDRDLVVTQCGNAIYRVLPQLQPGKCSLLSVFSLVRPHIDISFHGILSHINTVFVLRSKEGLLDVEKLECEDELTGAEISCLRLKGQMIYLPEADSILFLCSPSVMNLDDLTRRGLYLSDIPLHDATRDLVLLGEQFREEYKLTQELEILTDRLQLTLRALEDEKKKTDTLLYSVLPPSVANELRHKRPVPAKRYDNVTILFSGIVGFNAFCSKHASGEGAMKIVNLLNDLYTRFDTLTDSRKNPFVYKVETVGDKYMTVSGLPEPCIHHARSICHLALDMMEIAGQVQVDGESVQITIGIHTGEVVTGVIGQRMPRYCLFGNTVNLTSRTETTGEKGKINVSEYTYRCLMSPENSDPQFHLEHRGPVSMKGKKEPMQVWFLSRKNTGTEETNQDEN
Method: B-2. Effect on a Recombinant Guanylate Cyclase Reporter Cell Line
The cellular activity of the compounds of the invention is determined using a recombinant guanylate cyclase reporter cell line, as described in F. Wunder et al., Anal. Biochem. 2005, 339, 104-112. Representative values (MEC=minimum effective concentration) for the compounds of the invention are shown in the table below (Table 1B; in some cases as means of individual determinations): […]

[2] = molecular target: T2, human phosphodiesterase 5 (PDE 5) (Homo sapiens, UniProt O76074); test: Inhibition of human phosphodiesterase 5 (PDE 5); format: biochemical; settings: PDE 5 preparation from human platelets; in some cases means of individual determinations
T2 construct: PDE 5 preparations are obtained from human platelets by disruption; from tissue; host or cells: human platelets
Method: B-3. Inhibition of Human Phosphodiesterase 5 (PDE 5)
PDE 5 preparations are obtained from human platelets by disruption (Microfluidizer®, 800 bar, 3 passes), followed by centrifugation (75 000 g, 60 min, 4° C.) and ion exchange chromatography of the supernatant on a Mono Q 10/10 column (linear sodium chloride gradient, elution with a 0.2-0.3M solution of sodium chloride in buffer (20 mM Hepes pH 7.2, 2 mM magnesium chloride). Fractions having PDE 5 activity are combined (PDE 5 preparation) and stored at −80° C.
To determine their in vitro action on human PDE 5, the test substances are dissolved in 100% DMSO and serially diluted. Typically, dilution series (1:3) from 200 μM to 0.091 μM are prepared (resulting final concentrations in the test: 4 μM to 0.0018 μM). In each case 2 μl of the diluted substance solutions are placed into the wells of microtitre plates (Isoplate-96/200W; Perkin Elmer). Subsequently, 50 μl of a dilution of the above-described PDE 5 preparation are added. The dilution of the PDE 5 preparation is chosen such that during the later incubation less than 70% of the substrate are converted (typical dilution: 1:100; dilution buffer: 50 mM tris/hydrochloric acid pH 7.5, 8.3 mM magnesium chloride, 1.7 mM EDTA, 0.2% BSA). The substrate, [8-^3H] cyclic guanosine-3′,5′-monophosphate (1 μCi/μl; Perkin Elmer), is diluted 1:2000 with assay buffer (50 mM tris/hydrochloric acid pH 7.5, 8.3 mM magnesium chloride, 1.7 mM EDTA) to a concentration of 0.0005 μCi/μl. By addition of 50 μl (0.025 μCi) of the diluted substrate, the enzyme reaction is finally started. The test mixtures are incubated at room temperature for 60 min and the reaction is stopped by adding 25 μl of a suspension of 18 mg/ml yttrium scintillation proximity beads in water (phosphodiesterase beads for SPA assays, RPNQ 0150, Perkin Elmer). The microtitre plates are sealed with a film and left to stand at room temperature for 60 min. Subsequently, the plates are analysed for 30 s per well in a Microbeta scintillation counter (Perkin Elmer). IC50 values are determined using the graphic plot of the substance concentration against percentage PDE 5 inhibition.

Row | MEC [1] | IC50 [2] | Compound
1 | 0.1 µM | 26 nM | CC1(C)C(=O)Nc2nc(-c3nn(Cc4ccccc4F)c4ncccc34)nc(C(=O)NCCC(F)(F)F)c21 [Example 74, 2-[1-(2-fluorobenzyl)-1H-pyrazolo[3,4-b]pyridin-3-yl]-5,5-dimethyl-6-oxo-N-(3,3,3-trifluoropropyl)-6,7-dihydro-5H-pyrrolo[2,3-d]pyrimidine-4-carboxamide]
2 | 0.2 µM | 110 nM | Cc1nc2c(cc1F)c(-c1nc3c(c(C(N)=O)n1)C(C)(C)C(=O)N3)nn2Cc1cccc(F)c1F [Example 4, 2-[1-(2,3-Difluorobenzyl)-5-fluoro-6-methyl-1H-pyrazolo[3,4-b]pyridin-3-yl]-5,5-dimethyl-6-oxo-6,7-dihydro-5H-pyrrolo[2,3-d]pyrimidine-4-carboxamide]
3 | 0.1 µM | 11 nM | CC(NC(=O)c1nc(-c2nn(Cc3ccccc3F)c3ncccc23)nc2c1C(C)(C)C(=O)N2)C1CC1 (racemic) [Example 104, rac-N-(1-cyclopropylethyl)-2-[1-(2-fluorobenzyl)-1H-pyrazolo[3,4-b]pyridin-3-yl]-5,5-dimethyl-6-oxo-6,7-dihydro-5H-pyrrolo[2,3-d]pyrimidine-4-carboxamide]
4 | 0.03 µM | 62 nM | CC1(C)C(=O)Nc2nc(-c3nn(Cc4ccccc4F)c4ncccc34)nc(C(=O)NCCOCC(F)(F)F)c21 [Example 96, 2-[1-(2-fluorobenzyl)-1H-pyrazolo[3,4-b]pyridin-3-yl]-5,5-dimethyl-6-oxo-N-[2-(2,2,2-trifluoroethoxy)ethyl]-6,7-dihydro-5H-pyrrolo[2,3-d]pyrimidine-4-carboxamide]
5 | 2 µM | 81 nM | CC1(C)C(=O)Nc2nc(-c3nn(Cc4ncccc4F)c4ncc(F)cc34)nc(C(N)=O)c21 [Example 8, 2-{5-fluoro-1-[(3-fluoropyridin-2-yl)methyl]-1H-pyrazolo[3,4-b]pyridin-3-yl}-5,5-dimethyl-6-oxo-6,7-dihydro-5H-pyrrolo[2,3-d]pyrimidine-4-carboxamide]
6 | 0.065 µM | 88 nM | COCCNC(=O)c1nc(-c2nn(Cc3cccc(F)c3F)c3nc(C)c(F)cc23)nc2c1C(C)(C)C(=O)N2 [Example 41]
7 | 0.3 µM | 6 nM | CC1(C)C(=O)Nc2nc(-c3nn(Cc4ccccc4F)c4ncccc34)nc(C(=O)NC3CCCC3)c21 [Example 126, N-cyclopentyl-2-[1-(2-fluorobenzyl)-1H-pyrazolo[3,4-b]pyridin-3-yl]-5,5-dimethyl-6-oxo-6,7-dihydro-5H-pyrrolo[2,3-d]pyrimidine-4-carboxamide]
8 | 0.3 µM | 58 nM | Cc1nc2c(cc1F)c(-c1nc3c(c(C(N)=O)n1)C(C)(C(F)(F)F)C(=O)N3)nn2Cc1cccc(F)c1F (racemic) [Example 9, rac-2-[1-(2,3-difluorobenzyl)-5-fluoro-6-methyl-1H-pyrazolo[3,4-b]pyridin-3-yl]-5-methyl-6-oxo-5-(trifluoromethyl)-6,7-dihydro-5H-pyrrolo[2,3-d]pyrimidine-4-carboxamide]
9 | 0.1 µM | 16 nM | CSCCCNC(=O)c1nc(-c2nn(Cc3ccccc3F)c3ncccc23)nc2c1C(C)(C)C(=O)N2 [Example 61, 2-[1-(2-fluorobenzyl)-1H-pyrazolo[3,4-b]pyridin-3-yl]-5,5-dimethyl-N-[3-(methylsulfanyl)propyl]-6-oxo-6,7-dihydro-5H-pyrrolo[2,3-d]pyrimidine-4-carboxamide]
10 | 0.1 µM | 15 nM | CCCNC(=O)c1nc(-c2nn(Cc3ccccc3F)c3ncccc23)nc2c1C(C)(C)C(=O)N2 [Example 81, 2-[1-(2-fluorobenzyl)-1H-pyrazolo[3,4-b]pyridin-3-yl]-5,5-dimethyl-6-oxo-N-propyl-6,7-dihydro-5H-pyrrolo[2,3-d]pyrimidine-4-carboxamide]
11 | 0.3 µM | 27 nM | CCCCNC(=O)c1nc(-c2nn(Cc3ccccc3F)c3ncccc23)nc2c1C(C)(C)C(=O)N2 [Example 121, N-butyl-2-[1-(2-fluorobenzyl)-1H-pyrazolo[3,4-b]pyridin-3-yl]-5,5-dimethyl-6-oxo-6,7-dihydro-5H-pyrrolo[2,3-d]pyrimidine-4-carboxamide]
12 | 0.1 µM | 600 nM | Cc1nc2c(cc1F)c(-c1nc3c(c(C(N)=O)n1)C(C)(C(F)(F)F)C(=O)N3)nn2Cc1ccccc1F (single isomer, unassigned; ent-2) [Example 13, ent-2-[5-fluoro-1-(2-fluorobenzyl)-6-methyl-1H-pyrazolo[3,4-b]pyridin-3-yl]-5-methyl-6-oxo-5-(trifluoromethyl)-6,7-dihydro-5H-pyrrolo[2,3-d]pyrimidine-4-carboxamide (enantiomer A)]
13 | 0.03 µM | 1200 nM | CC1(C)C(=O)Nc2nc(-c3nn(Cc4ccccc4F)c4ncc(F)cc34)nc(C(=O)N3CCCC3)c21 (single isomer, unassigned) [Example 54]
14 | 1 µM | 620 nM | CC(CNC(=O)c1nc(-c2nn(Cc3ccccc3F)c3ncccc23)nc2c1C(C)(C)C(=O)N2)N(C)C (racemic) [Example 105, rac-N-[2-(dimethylamino)propyl]-2-[1-(2-fluorobenzyl)-1H-pyrazolo[3,4-b]pyridin-3-yl]-5,5-dimethyl-6-oxo-6,7-dihydro-5H-pyrrolo[2,3-d]pyrimidine-4-carboxamide]
15 | 0.03 µM | 5.2 nM | CC1(C)C(=O)Nc2nc(-c3nn(Cc4ccccc4F)c4ncc(F)cc34)nc(C(=O)NC3CC3)c21 [Example 28]
16 | 0.3 µM | 15 nM | CC1(C)C(=O)Nc2nc(-c3nn(Cc4ccccc4F)c4ncccc34)nc(C(=O)NCCO)c21 [Example 114, 2-[1-(2-fluorobenzyl)-1H-pyrazolo[3,4-b]pyridin-3-yl]-N-(2-hydroxyethyl)-5,5-dimethyl-6-oxo-6,7-dihydro-5H-pyrrolo[2,3-d]pyrimidine-4-carboxamide]
17 | 1 µM | 12 nM | CC1(C)C(=O)Nc2nc(-c3nn(Cc4ncccc4F)c4ncc(F)cc34)nc(C(=O)NC3CC3)c21 [Example 32]
18 | 0.03 µM | 1000 nM | CN(C(=O)c1nc(-c2nn(Cc3ccccc3F)c3cc(Cl)ccc23)nc2c1C(C)(C)C(=O)N2)C1CC1 [Example 46]
